Experimental findings from patent US7879853B2, “4,6-disubstituted pyrimidines and their use as protein kinase inhibitors” (Bayer Schering Pharma AG, priority 2004, dated 2011) are described below.

One may read the melting point as the temperature, or range, at which the solid turns liquid.

Series [1] has as its target T1, Akt1 (full-length Akt1, active) (Homo sapiens, UniProt P31749).
T1 construct: recombinant full-length human Akt1, containing N-terminal His6 tag; His6 (N); GST (alternative statement of the assay paragraph) (N); purchased Upstate, UK #14-276; host or cells: baculovirus infected Sf21 insect cells
Nature of the series: Biochemical Akt1 (active) assay (full-length Akt1), flashplate, Crosstide. The following applies: Crosstide substrate, 100 nM ATP, 60 minutes at 30° C.; read-out: Akt1 inhibition (full-length Akt1, active): IC50. The source says: For the biochemical Akt1 assay recombinant full-length human Akt1, containing N-terminal His6 tag was cloned and expressed in baculovirus infected Sf21 insect cells. Akt1 is activated with GST-MAPKAP-K2 and PDK1, and repurified on Ni2+/NTA-agrose and glutathioneagarose (Upstate, UK; #14-276).
In order to study the inhibition of Akt1 (full-length version) according to the invention, a flashplate-based assay has been developed.
The full-length Akt1 assay is a biochemical assay using Akt1 N-terminally fused to GST and co-expressed with PDK1 in insect cells. The Akt1 assay is run in 96 well plates by incubating 500 ng/well GST-Akt1, 1 μM Crosstide (N-terminally biotinylated synthetic peptide (KGSGSGRPRTSSFAEG) Upstate, #12-385) as substrate, 10 μl of test compound (test compounds were dissolved as 10 mM solutions in dimethylsulfoxide (DMSO) and subsequently diluted) and 100 nM ATP (including ^33P-ATP) in 100 μl of reaction buffer (50 mM HEPES, pH7.5; 3 mM MgCl2; 3 mM MnCl2; 3 μM Na-Orthovanadat; 1 mM DTT; 1 μg/ml PEG8000) for 60 minutes at 30° C. in 96 well microtiter plates. The reactions are terminated by adding 100 μl stopping buffer (5M NaCl, 35 mM EDTA pH 8,0) for 5 minutes. 190 μl of the reaction mixture are transferred into streptavidin-coated Flashplates (Perkin Elmer, #SMP-103) and incubated for further 30 minutes at room temperature. The plates are washed 3 times by using washing buffer (0.9% NaCl). Relying on the incorporation of ^33P into the peptide substrate crosstide, the detection is based on the specific binding of the biotinylated peptide to the streptavidin-coated surface of scintillator-coated flash plates (NEN, USA; #SMP-103). This phosphorylation is measured by counting the plate for 60 sec. using a plate reader (Wallac Microbeta; Perkin Elmer, USA). The analysis of the data is performed using a biostatistical program (GraphPad Prism, USA).

Series [2] deals with MCF7 cells. Nature of the series: Cellular proliferation/cytotoxicity assay (Alamar Blue), MCF7. The series is classed as cell-based. The following applies: Homo sapiens; MCF7, 48 hours, Alamar Blue (Resazurin); read-out: Anti-proliferative/cytotoxic activity: IC50 MCF7. The method, then: (§1) The anti-proliferative activity of the compounds as described herein, is evaluated using MCF7 and MDA-MB-468 (ATCC HTB-22 and HTB-132) cell lines and the Alamar Blue (Resazurin) cell viability assay (O'Brien et al. Eur J Biochem 267, 5421-5426, 2000). Resazurin is reduced to the fluorescent rescrufin by cellular dehydrogenase activity, correlating with viable, proliferating cells. Test compounds are dissolved as 10 mM solutions in DMSO and subsequently diluted. MCF7 or […] cells were seeded into 96 well flat bottom plates at a density of 10000 cells/well (MCF7) or 5000 cells/well (MDA-MB-468) in a volume of 200 μl/well. 24 hours after seeding, 1 μl each of the compound dilutions are added into each well of the 96 well plates. Each compound dilution is tested as at least as duplicates. Wells containing untreated control cells were filled with 200 μl DMEM containing 0.5% v:v DMSO. The cells are then incubated with the substances for 48 hours at 37° C. in a humidified atmosphere containing 5% carbon dioxide. To determine cell viability, 20 μl of a Resazurin solution (Sigma; 90 mg/l) are added. After 4 hours incubation at 37° C. the fluorescence is measured at an extinction of 544 nm and an emission of 590 nm (Wallac Victor2; Perkin Elmer, USA). For the calculation of the cell viability the emission value from untreated cells is set as 100% viability and the emission rates of treated cells are set in relation to the values of untreated cells. Viabilities are expressed as % values. The corresponding IC50 values of the compounds for cytotoxic activity are determined from the concentration-effect curves by means of non-linear regression. The analysis of the data is performed using a biostatistical program (GraphPad Prism, USA).

The target in series [3] is T2, Akt1 (full-length Akt1, inactive) (Homo sapiens, UniProt P31749).
T2 construct: recombinant full-length human Akt1 a containing N-terminal His6 tag; His6 (N); purchased Upstate, UK #14-279; host or cells: baculovirus infected Sf21 insect cells
T2 sequence (P31749 whole entry): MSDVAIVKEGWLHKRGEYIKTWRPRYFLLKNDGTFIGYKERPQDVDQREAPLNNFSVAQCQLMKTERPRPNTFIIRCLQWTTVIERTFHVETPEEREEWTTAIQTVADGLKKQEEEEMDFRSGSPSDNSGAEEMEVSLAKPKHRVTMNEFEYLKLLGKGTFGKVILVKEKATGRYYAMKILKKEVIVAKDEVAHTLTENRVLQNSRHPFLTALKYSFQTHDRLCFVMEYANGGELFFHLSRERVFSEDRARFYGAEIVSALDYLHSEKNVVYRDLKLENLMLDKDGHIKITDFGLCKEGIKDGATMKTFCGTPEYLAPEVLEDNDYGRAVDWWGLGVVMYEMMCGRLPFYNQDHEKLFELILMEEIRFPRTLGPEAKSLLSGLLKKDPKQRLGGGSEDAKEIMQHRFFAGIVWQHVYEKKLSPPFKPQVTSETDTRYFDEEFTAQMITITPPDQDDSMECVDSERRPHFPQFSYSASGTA
Nature of the series: Biochemical Akt1 (inactive) assay (full-length Akt1), IMAP, PDK1-dependent activation. The following applies: activation by PDK1 with PIP3 vesicles, 50 μM ATP, 60 min. at room temperature; read-out: Inhibition of Akt1 activation (full-length Akt1, inactive): IC50. The method, then:
The enzyme is purified using Ni2+/NTA-agarose (Upstate, UK; #14-279).
The enzyme is purified using Ni2+/NTA-agarose.
PDK1-dependent activation and subsequent enzymatic activity of Akt1: Activity of purified human Akt1 is routinely measured in an assay in which the enzyme is first activated by PDK1 in the presence of phosphatidylinositol-3,4,5-triphosphate (PIP3). Once activated, Akt1-dependent phosphorylation of a fluorescence labelled peptide substrate is measured by fluorescence polarisation using the IMAP technology (Molecular Devices).
The phospholipids are prepared as follows: 5 mg DOPC/DOPS are solved in 200 μl 10 mM Tris (pH 7.4) and 300 μg PIP3 are resuspended in 950 μl 10 mM Tris (pH 7.4) by pipetting. 950 μl solved PIP3 are mixed with 50 μl solved DOPC/DOPS and incubated for 2 h at a temperature below 20° C. Then the mixture is subjected to sonification for 30 min. at max. power until a translucent phopholipid vesicle preparation is obtained. Aliquots of the vesicle suspension are frozen at −80° C. until needed, likewise the solved DOPC/DOPS.
Assays are performed in 384-well plates. Incubations are carried out for 60 min. at room temperature. The reaction buffer mixture contains in a final volume of 25 μl: 10 mM Tris pH 7.4, 10 mM MgCl2. 1 mM DTT, and 0,1 mg/ml BSA. In contrast the activation buffer contains: 50 ng/well Akt1, 20 ng/well PDK1, 1.25 μM peptide substrat, 50 μM ATP, and phospholipid vesicles (1:20). Test compounds are added from stock solutions in DMSO before activation of Akt1 by PDK1. After the incubation the beads (IMAP binding reagent; Molecular Devices; 1:167) are added and the fluorescence polarization is measured (excitation 485 nm, emission 530 nm). The analysis of the data is performed using a biostatistical program.

Series [4] deals with MDA-MB-468 cells. Nature of the series: Cellular proliferation/cytotoxicity assay (Alamar Blue), MDA-MB-468. Format: cell-based. The following applies: Homo sapiens; MDA-MB-468, 48 hours, Alamar Blue (Resazurin); read-out: Anti-proliferative/cytotoxic activity: IC50 MDA468. The method, then: as §1
(In general: Resazurin is reduced to fluorescent resorufin, in cell work by metabolically active cells.)

The target in series [5] is T3, GST-ΔPH-Akt1 (Homo sapiens, UniProt P31749).
T3 construct: named GST-deltaPH-Akt1; 107480aa; cloned in the pAcG1 vector; made in house; host or cells: SF9 insect cells (pAcG1 vector), co-expressed with PDK1
T3 sequence (P31749 107-480 limits assumed, stated change not applied): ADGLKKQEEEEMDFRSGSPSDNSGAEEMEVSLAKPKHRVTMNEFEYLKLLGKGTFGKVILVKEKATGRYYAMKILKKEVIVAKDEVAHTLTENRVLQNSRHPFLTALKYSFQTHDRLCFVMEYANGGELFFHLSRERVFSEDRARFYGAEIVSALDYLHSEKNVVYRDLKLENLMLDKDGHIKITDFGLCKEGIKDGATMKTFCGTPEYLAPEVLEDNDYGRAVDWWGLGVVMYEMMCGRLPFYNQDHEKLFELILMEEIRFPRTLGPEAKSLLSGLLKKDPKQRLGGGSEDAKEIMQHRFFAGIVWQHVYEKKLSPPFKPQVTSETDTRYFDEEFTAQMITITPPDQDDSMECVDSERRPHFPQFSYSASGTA
Nature of the series: Biochemical ΔPH Akt1 assay (flashplate, 33P-ATP, histone 2B). The settings on record: GST-ΔPH-Akt1, histone 2B substrate, 100 nM ATP, 80 minutes at 30° C.; read-out: Akt inhibition: IC50 (inhibition of deltaPHAkt1). The source says: For the biochemical assay ΔPHAkt1 was used devoid of its PH domain as a GST fusion protein (named GST-deltaPH-Akt1; 107480aa; cloned in the pAcG1 vector (BD Biosciences Pharmingen)), co-expressed with PDK1 in SF9 insect cells. The protein was purified using glutathion-affinity chromatography by standard protocols.
In order to study the inhibition of Akt according to the invention, a flashplate-based assay has been developed.
The Akt1 assay is a biochemical assay using Akt1 devoid of its PH domain and co-expressed with PDK1 in insect cells. The GST-ΔPH-Akt1 assay is run in 96 well plates by incubating 100 ng/well GST-ΔPH-Akt1, 100 ng/well histone 2B (Roche, #223514) as substrate, 10 μl of compound of invention (test compounds were dissolved as 10 mM solutions in dimethylsulfoxide (DMSO) and subsequently diluted) and 100 nM ATP (including ^33P-ATP) in 100 μl of reaction buffer ([…], pH7.5; 3 mM MgCl2; 3 mM MnCl2; 3 μM Na-Orthovanadat; 1 mM DTT; 1 μg/ml PEG8000) for 80 minutes at 30° C. The reactions are terminated by adding 100 μl stopping buffer (2% H3PO4 for 5 minutes) and are washed 3 times by using washing buffer (0.9% NaCl). Relying on the incorporation of ^33P into the protein substrate histone 2B, the detection is based on the adhesion of the phosphorylated protein to the surface of scintillator-coated flash plates (NEN, USA; #SMP-200). This phosphorylation is measured by counting the plate for 60 sec. using a plate reader (Wallac Microbeta; Perkin Elmer, USA). The analysis of the data is performed using a biostatistical program (GraphPad Prism, USA).

T1 sequence (P31749 whole entry): as the sequence (P31749 whole entry) above

As to `NCc1ccc(C(=O)Nc2ccc(Nc3cc(-c4cccc5c4oc4ccccc45)ncn3)cc2)cc1.O=C(O)C(F)(F)F` [Compound 49, 4-Aminomethyl-N-[4-(6-dibenzofuran-4-yl-pyrimidin-4-ylamino)-phenyl]-benzamide trifluoroacetate], the melting point fell in the range of 155 to 165 °C. The IC50 in series [1] was at most 1.75 µM. Further, the IC50 in series [2] is at most 16.6 µM. The IC50 in series [3] is at most 4.4 µM. In addition, the IC50 in series [4] is at most 6.05 µM.

`NCc1ccc(C(=O)Nc2cccc(Nc3cc(-c4cccc5c4oc4ccccc45)ncn3)c2)cc1.O=C(O)C(F)(F)F` [Compound 57, 4-Aminomethyl-N-[3-(6-dibenzofuran-4-yl-pyrimidin-4-ylamino)-phenyl]-benzamid trifluoroacetate] had a melting point of 114 °C. Further, in series [1], the IC50 was at most 1.75 µM. Moreover, the IC50 in series [5] was at most 5 µM. Further, the IC50 in series [3] was at most 4.4 µM.

For `NCc1cccc(C(=O)Nc2ccc(Nc3cc(-c4cccc5c4oc4ccccc45)ncn3)cc2)n1` [Compound 73, 6-Aminomethyl-pyridin-2-carbonsäure-[4-(6-dibenzofuran-4-yl-pyrimidin-4-ylamino)-phenyl]-amide], the melting point lay in the range of 183 to 186 °C. Moreover, the IC50 in series [1] was at most 1.75 µM.

For `O=C(Nc1ccc(Nc2cc(-c3cccc4c3oc3ccccc34)ncn2)cc1)c1ccc2c(c1)CCNC2.O=C(O)C(F)(F)F` [Compound 78, 1,2,3,4-Tetrahydro-isoquinoline-6-carboxylic acid [4-(6-dibenzofuran-4-yl-pyrimidin-4-ylamino)-phenyl]-amide trifluoroacetate], the melting point amounted to 146 °C. Besides, in series [2], the IC50 was at most 16.6 µM. Moreover, the IC50 in series [5] is at most 5 µM. The IC50 in series [4] was at most 6.05 µM.
